Test results reported in article PMC9106868 (European journal of medicinal chemistry, 2022).

Key:
NMDAR = conditions: cited from earlier work; for IC50: therapeutically beneficial NMDAR antagonists, ref [28],[61]–[68]; for V0: previously reported values, ref [28],[63],[68],[80]–[81]
GluN1/2A NMDARs = GluN1/2A NMDARs (Rattus norvegicus, UniProt P35439+Q00959); assay type: cell-based; conditions: after removal of 10 μM blocker
5XFAD mice hippocampus = test: Western blot of hippocampal proteins after treatment; assay type: in vivo, mouse; conditions: 5 mg / kg
Caco-2 cells = test: Caco-2 cell permeability; assay type: in vitro ADME; conditions: 10 μM in HBSS, 1 hour, 37 °C

GluN1/2A NMDARs, sequence (Q00959 23-1464, other chains not shown): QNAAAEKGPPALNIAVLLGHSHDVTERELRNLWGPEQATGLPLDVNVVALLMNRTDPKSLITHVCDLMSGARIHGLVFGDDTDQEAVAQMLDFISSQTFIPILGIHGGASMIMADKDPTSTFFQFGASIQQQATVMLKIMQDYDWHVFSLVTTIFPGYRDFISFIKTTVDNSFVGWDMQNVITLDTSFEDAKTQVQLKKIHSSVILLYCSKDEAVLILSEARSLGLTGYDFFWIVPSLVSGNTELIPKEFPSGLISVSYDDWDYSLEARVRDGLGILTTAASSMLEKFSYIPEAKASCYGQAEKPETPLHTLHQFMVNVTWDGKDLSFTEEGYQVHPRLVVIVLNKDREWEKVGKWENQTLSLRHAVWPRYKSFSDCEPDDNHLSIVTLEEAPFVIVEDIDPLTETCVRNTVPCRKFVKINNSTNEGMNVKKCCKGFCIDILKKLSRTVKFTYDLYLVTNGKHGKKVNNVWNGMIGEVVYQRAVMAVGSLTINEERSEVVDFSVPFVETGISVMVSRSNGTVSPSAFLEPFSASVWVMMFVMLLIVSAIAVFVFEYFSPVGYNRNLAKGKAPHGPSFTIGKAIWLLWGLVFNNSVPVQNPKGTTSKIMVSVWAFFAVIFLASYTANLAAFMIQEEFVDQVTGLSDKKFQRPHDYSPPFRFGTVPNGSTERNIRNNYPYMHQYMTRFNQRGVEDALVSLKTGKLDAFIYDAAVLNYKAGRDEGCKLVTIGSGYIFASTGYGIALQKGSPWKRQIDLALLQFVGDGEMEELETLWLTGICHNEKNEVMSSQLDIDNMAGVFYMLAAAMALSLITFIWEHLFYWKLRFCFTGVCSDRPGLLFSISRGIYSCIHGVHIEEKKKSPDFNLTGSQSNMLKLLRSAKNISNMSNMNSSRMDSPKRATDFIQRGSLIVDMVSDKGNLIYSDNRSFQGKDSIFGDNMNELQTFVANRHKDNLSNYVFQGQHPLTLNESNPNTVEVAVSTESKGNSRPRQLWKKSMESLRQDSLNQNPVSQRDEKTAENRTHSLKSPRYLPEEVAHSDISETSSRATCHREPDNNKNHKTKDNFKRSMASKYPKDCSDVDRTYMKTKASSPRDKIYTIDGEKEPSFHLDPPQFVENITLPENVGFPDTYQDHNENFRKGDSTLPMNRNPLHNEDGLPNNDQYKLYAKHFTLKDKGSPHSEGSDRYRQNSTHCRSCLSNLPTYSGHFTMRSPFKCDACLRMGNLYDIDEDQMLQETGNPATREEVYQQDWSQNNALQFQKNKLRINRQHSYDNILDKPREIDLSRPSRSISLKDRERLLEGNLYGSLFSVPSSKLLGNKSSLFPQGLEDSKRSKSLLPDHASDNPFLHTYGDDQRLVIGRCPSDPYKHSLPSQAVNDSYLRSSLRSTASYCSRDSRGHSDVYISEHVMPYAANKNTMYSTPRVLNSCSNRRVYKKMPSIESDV

## NC12CC3CC(CC(C3)C1)C2 [amantadine]
NMDAR
  IC50: 40 to 75 µM

## CC12CC3CC(C)(C1)CC(N)(C3)C2 [Memantine, memantine]
GluN1/2A NMDARs
  Unblocking kinetics, τweighted: 6.4 ± 1.4 s
5XFAD mice hippocampus
  Calbindin D-28K protein levels: reverts calbindin D-28K protein levels to WT levels
  PSD95 expression: rescues expression of postsynaptic density protein (PSD) 95
5XFAD mice hippocampus; vs untreated 5XFAD
  p-CREB protein levels in the nucleus: significantly increased p-CREB protein levels in the nucleus
NMDAR
  V0: 26 – 30 mV
  IC50: 1 to 2 µM

## Lucifer yellow
Caco-2 cells
  Caco-2 Papp (monolayer integrity): ≤ 1 ×10⁻⁶ cm/s

## CNC1(c2ccccc2Cl)CCCCC1=O (stereo not drawn) [ketamine]
NMDAR
  V0: 26 – 30 mV
